Consider 16 compounds from PMC11956013, “Structure–Activity Relationships and Evaluation of 2-(Heteroaryl-cycloalkyl)-1H-indoles as Tauopathy Positron Emission Tomography Radiotracers” (Journal of Medicinal Chemistry, 2025).

Like-named read-outs stand apart in the source and are kept apart here.

One assay concerns the target T1, 5-HT2A (h) (Homo sapiens, UniProt P28223).
T1 construct: purchased Eurofins (contract screening, CNS SafetyScreen panel)
The experiment in a line: Eurofins panel: 5-HT2A (h) (agonist radioligand). It is filed as binding. The note with it: reference compound; 5-HT2A (h).

Another assay concerns the target T2, 5-HT2C (h) (Homo sapiens, UniProt P28335).
T2 construct: purchased Eurofins (contract screening, CNS SafetyScreen panel)
T2 sequence (P28335 33-458): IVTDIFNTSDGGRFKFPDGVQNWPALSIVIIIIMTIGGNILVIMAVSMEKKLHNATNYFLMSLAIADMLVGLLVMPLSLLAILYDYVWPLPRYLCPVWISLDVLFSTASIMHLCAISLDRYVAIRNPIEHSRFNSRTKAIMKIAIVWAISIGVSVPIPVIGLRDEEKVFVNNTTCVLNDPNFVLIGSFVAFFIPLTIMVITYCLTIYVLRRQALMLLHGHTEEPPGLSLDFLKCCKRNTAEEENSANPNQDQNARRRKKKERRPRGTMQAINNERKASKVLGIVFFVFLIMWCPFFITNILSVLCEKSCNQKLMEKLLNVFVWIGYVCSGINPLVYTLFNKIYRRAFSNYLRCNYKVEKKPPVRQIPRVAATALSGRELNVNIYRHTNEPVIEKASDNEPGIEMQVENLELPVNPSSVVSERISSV
The experiment in a line: Eurofins panel: 5-HT2C (h) (agonist radioligand). The class given is binding. As to conditions: reference compound, 5-HT2C (h).

Another assay concerns the target T3, human 5-HT2B (Homo sapiens, UniProt P41595).
T3 construct: purchased Eurofins (contract screening, CNS SafetyScreen panel)
The experiment in a line: Eurofins CNS SafetyScreen panel: 5-HT2B (vs ± DOI). The class given is binding. As to conditions: reference compound, 5-HT2B (h).

For another assay, the target named is dopamine transporter (h) (Homo sapiens, UniProt Q01959). The experiment in a line: dopamine transporter (h) (antagonist radioligand), Eurofins assay 52. The note with it: Specific binding; reference compound.
The target of assay [1] is T4, aggregated tau (4R-tau) in PSP brain tissue homogenates (Homo sapiens, UniProt P10636).
T4 construct: from tissue
Also on record: method as in earlier work. As to conditions: PSP brain tissue homogenate; radioligand [^3H]3; read-out: Ki versus [^3H]3, PSP tissue; cited from earlier work.

Assay [2] addresses T4, aggregated tau (4R-tau) in PSP brain tissue homogenates. The experiment in a line: In vitro competition (Ki) assay versus [^3H]7, PSP brain tissue homogenate. The class given is binding. The note with it: radioligand [^3H]7 ∼1 nM.
Assay [3] has as its target T5, aggregated tau (mixed 3R/4R-tau) in AD brain tissue homogenates (Homo sapiens, UniProt P10636). Briefly: In vitro competition (Ki) assay versus [^3H]7, AD brain tissue homogenate. It is filed as binding. As to conditions: radioligand [^3H]7 ∼1 nM.
Target sequence in this assay (P10636 623-695 limits assumed): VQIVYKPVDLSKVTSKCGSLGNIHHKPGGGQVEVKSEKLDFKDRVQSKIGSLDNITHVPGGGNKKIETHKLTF
The target of assay [4] is T4, aggregated tau (4R-tau) in PSP brain tissue homogenates. The experiment in a line: In vitro competition (Ki) assay versus [^3H]8, PSP brain tissue homogenate. It is filed as binding. The note with it: radioligand [^3H]8 ∼1 nM.
Assay [5] concerns the target T6, aggregated tau (4R-tau) in CBD brain tissue homogenates (Homo sapiens, UniProt P10636). Briefly: biochemical.
Assay [6] has as its target T5, aggregated tau (mixed 3R/4R-tau) in AD brain tissue homogenates. Also on record: method as in earlier work. As to conditions: AD brain tissue homogenate; radioligand [^3H]3; read-out: Ki versus [^3H]3, AD tissue; cited from earlier work.
Target sequence in this assay (P10636 623-695 limits assumed): as above
For assay [7], the target named is T6, aggregated tau (4R-tau) in CBD brain tissue homogenates. Also on record: from tissue; host or cells: post-mortem human CBD brain, middle frontal gyrus homogenate; method as in earlier work. The note with it: CBD brain tissue homogenate; radioligand [^3H]3; read-out: Ki versus [^3H]3, CBD tissue; cited from earlier work.
In assay [8] the target is T5, aggregated tau (mixed 3R/4R-tau) in AD brain tissue homogenates. Briefly: In vitro competition (Ki) assay versus [^3H]8, AD brain tissue homogenate. It is filed as binding. As to conditions: radioligand [^3H]8 ∼1 nM.
Target sequence in this assay (P10636 623-708 limits assumed): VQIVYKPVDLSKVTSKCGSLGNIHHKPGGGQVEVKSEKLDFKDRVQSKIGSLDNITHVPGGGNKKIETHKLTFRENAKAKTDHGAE
Assay [9] addresses T6, aggregated tau (4R-tau) in CBD brain tissue homogenates. The note with it: read-out: Ki versus [^3H]7, CBD tissue; CBD brain tissue homogenate; radioligand [^3H]7 ∼1 nM.
Another assay has as its target 5-HT1A (h) (Homo sapiens, UniProt P08908). The note with it: reference compound; 5-HT1A (h).
For another assay, the target named is A3 (h) (Homo sapiens, UniProt P0DMS8). The note with it: reference compound; A3 (h).
For the next assay, the target named is 5-HT3 (h) (Homo sapiens, UniProt P46098). The note with it: reference compound; 5-HT3 (h).
For the next assay, the target named is B2 (h) (Homo sapiens, UniProt P30411). As to conditions: reference compound; B2 (h).
Another assay deals with BZDp (TSPO) (h) (Homo sapiens, UniProt P30536). The experiment in a line: Eurofins panel: BZDp (TSPO) (h) (antagonist radioligand). The note with it: reference compound; BZDp (TSPO) (h).
The target of a further assay is p38alpha kinase (h) (Homo sapiens, UniProt Q16539). The note with it: reference compound.
The target in another assay is beta1 (h) (Homo sapiens, UniProt P08588). The note with it: reference compound; beta1 (h).
The target of a further assay is ATPase (Na+/K+). The experiment in a line: Eurofins panel: ATPase (Na+/K+) enzymatic activity. The note with it: reference compound, read-out: Concurrent IC50, Enzymatic activity. The class given is biochemical.
The target of assay [10] is norepinephrine transporter (h) (Homo sapiens, UniProt P23975). The note with it: reference compound.
The target in the next assay is 5-HT4e (h) (Homo sapiens, UniProt Q13639). The experiment in a line: Eurofins panel: 5-HT4e (h) (antagonist radioligand). The note with it: reference compound; 5-HT4e (h).
For another assay, the target named is 5-HT7 (h) (Homo sapiens, UniProt P34969). The note with it: reference compound; 5-HT7 (h).
Another assay addresses JNK1 (h) (Homo sapiens, UniProt P45983). As to conditions: Enzymatic activity; reference compound.
The next assay has as its target alpha2A (h) (Homo sapiens, UniProt P08913). As to conditions: reference compound; alpha2A (h).
In another assay the target is alpha2C (h) (Homo sapiens, UniProt P18825). The note with it: reference compound; alpha2C (h).
In a further assay the test system is Ca2+ channel (N). It is filed as binding. As to conditions: read-out: Concurrent IC50, Specific binding.
The mark [11] stands for this setting: read-out: Concurrent IC50, Specific binding.
[12] abbreviates: read-out: Concurrent Ki, Specific binding.

T3 sequence (P41595 whole entry): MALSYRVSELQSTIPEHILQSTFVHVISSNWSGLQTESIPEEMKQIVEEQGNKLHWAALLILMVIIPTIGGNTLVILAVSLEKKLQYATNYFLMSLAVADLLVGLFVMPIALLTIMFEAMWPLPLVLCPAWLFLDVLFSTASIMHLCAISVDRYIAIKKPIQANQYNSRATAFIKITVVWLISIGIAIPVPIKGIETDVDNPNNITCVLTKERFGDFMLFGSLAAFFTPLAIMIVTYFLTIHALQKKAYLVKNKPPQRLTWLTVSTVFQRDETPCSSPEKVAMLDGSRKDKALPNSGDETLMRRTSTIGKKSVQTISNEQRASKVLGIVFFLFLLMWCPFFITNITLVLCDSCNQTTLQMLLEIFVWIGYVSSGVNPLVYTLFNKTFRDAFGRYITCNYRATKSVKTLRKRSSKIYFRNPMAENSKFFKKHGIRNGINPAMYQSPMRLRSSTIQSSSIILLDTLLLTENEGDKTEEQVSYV
T6 sequence (P10636 1-441 isoform P10636-8): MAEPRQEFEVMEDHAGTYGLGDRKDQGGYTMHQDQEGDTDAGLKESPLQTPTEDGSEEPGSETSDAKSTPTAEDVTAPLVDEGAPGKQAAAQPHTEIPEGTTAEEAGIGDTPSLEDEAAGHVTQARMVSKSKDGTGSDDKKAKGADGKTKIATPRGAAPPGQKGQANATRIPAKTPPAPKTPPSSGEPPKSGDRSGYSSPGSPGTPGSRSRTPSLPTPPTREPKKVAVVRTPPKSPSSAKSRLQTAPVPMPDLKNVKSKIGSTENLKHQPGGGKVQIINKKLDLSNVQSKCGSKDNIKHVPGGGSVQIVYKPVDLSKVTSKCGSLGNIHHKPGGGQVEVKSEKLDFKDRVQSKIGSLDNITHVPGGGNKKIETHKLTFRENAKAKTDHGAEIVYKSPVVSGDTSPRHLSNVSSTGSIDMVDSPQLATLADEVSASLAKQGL
T4 sequence (P10636 1-441 isoform P10636-8): as above
norepinephrine transporter (h), sequence (P23975 whole entry): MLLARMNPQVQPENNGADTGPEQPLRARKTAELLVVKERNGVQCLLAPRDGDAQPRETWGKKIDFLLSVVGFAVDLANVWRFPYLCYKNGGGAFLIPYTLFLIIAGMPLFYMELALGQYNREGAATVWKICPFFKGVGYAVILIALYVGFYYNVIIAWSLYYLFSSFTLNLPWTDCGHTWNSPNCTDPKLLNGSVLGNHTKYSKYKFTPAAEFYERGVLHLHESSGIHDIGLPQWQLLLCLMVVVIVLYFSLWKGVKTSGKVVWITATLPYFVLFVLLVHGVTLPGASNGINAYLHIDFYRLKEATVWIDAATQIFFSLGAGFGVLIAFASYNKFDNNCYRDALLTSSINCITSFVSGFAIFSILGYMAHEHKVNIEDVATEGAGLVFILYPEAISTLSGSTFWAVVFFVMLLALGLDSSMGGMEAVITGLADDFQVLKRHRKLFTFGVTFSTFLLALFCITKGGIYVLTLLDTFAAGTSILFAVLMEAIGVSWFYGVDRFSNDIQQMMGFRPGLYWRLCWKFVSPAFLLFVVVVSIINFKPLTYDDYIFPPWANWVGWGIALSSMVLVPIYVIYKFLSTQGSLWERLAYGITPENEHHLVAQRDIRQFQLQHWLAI
B2 (h), sequence (P30411 whole entry): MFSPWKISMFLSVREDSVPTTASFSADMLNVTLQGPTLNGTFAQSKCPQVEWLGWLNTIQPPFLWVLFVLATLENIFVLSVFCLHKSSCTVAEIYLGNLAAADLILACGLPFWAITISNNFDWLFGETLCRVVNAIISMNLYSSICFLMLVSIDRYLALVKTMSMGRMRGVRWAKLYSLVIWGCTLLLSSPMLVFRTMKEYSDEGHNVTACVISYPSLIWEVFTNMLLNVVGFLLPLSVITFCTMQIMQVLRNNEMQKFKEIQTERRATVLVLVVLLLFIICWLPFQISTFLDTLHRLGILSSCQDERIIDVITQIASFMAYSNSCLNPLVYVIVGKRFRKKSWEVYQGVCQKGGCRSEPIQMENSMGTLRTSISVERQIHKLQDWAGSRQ
5-HT1A (h), sequence (P08908 whole entry): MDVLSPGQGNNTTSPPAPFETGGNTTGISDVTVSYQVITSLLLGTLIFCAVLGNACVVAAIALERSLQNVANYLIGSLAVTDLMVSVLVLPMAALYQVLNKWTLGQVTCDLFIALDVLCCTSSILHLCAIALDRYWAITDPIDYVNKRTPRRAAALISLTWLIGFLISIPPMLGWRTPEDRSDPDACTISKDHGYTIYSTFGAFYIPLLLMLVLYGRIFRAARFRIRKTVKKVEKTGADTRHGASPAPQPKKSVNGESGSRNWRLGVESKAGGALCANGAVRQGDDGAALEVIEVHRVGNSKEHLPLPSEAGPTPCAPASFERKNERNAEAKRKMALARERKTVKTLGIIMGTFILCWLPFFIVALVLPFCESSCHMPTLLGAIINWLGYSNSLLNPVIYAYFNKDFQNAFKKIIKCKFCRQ
alpha2C (h), sequence (P18825 whole entry): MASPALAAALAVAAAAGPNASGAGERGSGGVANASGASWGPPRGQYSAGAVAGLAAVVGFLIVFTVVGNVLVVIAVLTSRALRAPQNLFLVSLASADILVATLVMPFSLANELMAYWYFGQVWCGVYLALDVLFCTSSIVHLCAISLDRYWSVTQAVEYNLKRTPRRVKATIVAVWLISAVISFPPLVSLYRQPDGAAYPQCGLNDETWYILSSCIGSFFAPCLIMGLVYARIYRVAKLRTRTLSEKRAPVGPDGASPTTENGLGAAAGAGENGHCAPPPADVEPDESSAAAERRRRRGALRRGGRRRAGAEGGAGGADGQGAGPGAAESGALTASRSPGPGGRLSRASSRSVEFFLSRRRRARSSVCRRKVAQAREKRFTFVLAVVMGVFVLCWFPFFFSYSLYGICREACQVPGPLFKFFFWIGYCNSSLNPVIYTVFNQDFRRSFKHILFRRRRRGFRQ
JNK1 (h), sequence (P45983 whole entry): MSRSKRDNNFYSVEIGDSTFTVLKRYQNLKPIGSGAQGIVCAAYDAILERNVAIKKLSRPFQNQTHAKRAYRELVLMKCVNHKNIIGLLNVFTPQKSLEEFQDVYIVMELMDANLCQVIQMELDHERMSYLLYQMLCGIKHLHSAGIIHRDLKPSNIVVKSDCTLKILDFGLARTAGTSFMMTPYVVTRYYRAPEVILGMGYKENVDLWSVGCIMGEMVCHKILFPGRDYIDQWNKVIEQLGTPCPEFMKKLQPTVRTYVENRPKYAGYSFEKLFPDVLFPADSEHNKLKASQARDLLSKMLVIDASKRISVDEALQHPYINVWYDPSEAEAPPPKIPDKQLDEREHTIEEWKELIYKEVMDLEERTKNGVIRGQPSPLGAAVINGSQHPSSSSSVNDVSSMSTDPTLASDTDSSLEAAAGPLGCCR
alpha2A (h), sequence (P08913 whole entry): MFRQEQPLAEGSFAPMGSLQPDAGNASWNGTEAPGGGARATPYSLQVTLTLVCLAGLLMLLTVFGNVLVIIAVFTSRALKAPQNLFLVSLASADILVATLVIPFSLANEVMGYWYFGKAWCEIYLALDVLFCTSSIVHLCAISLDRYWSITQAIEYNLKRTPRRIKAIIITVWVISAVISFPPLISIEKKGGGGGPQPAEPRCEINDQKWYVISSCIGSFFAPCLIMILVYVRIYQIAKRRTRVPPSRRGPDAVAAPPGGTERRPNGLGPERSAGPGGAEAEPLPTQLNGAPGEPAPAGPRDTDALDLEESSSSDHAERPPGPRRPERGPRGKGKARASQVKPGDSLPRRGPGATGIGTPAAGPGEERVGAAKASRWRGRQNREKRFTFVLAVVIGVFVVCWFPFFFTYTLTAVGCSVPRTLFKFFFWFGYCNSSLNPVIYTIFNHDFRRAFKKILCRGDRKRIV
5-HT7 (h), sequence (P34969 whole entry): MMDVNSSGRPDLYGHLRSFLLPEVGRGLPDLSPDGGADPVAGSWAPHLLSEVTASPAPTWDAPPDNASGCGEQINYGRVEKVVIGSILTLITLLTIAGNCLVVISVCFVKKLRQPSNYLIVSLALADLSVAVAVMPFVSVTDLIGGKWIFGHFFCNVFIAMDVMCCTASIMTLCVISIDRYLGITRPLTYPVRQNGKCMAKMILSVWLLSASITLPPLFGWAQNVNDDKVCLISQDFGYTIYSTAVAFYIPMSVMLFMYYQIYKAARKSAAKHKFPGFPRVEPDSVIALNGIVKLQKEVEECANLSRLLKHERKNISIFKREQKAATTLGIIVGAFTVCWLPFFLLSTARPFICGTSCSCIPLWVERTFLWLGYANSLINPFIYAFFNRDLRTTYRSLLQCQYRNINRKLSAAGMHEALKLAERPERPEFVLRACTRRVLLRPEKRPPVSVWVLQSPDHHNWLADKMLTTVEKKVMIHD
beta1 (h), sequence (P08588 whole entry): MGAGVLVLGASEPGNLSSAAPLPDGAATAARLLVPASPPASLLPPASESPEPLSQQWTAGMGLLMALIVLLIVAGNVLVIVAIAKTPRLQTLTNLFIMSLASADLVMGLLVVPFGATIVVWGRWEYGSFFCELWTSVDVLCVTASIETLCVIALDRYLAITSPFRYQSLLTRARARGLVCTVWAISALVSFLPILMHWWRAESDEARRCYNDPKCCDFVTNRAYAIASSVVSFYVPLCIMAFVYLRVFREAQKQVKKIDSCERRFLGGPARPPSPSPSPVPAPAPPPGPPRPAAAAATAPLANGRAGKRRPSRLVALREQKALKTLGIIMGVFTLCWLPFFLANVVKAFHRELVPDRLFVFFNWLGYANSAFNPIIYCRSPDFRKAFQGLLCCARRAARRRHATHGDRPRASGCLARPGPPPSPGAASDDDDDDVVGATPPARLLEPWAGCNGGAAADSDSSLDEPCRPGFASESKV

One may read the IC50 as the concentration that inhibits the measured activity by half. What is called Ki is the equilibrium dissociation constant of an inhibitor or competing ligand from its target. `COc1cc(CC(C)N)c(OC)cc1I` (racemic) [(±)DOI]: the entries for the “nH, Specific binding” value at 5-HT2A (h), at 5-HT2C (h) and on human 5-HT2B were 0.9157, 0.9843 and 0.8475, respectively. Besides, the IC50 on 5-HT2C (h) (setting [11]) amounted to 0.668 nM; at human 5-HT2B (setting [11]) it was 3.51 nM. For the same compound, the Ki was 0.602 nM on 5-HT2C (h) (setting [12]) and 1.75 nM on human 5-HT2B (setting [12]).
At dopamine transporter (h), `c1ccc2sc(C3(N4CCCCC4)CCCCC3)cc2c1` [BTCP] came in with a nH of 0.9093.
`OC1CCN(c2ncc(-c3cc4ccc(F)cc4[nH]3)cn2)CC1` [Compound 7]: the Ki was 20 nM in assay [1]; 24 nM in assay [2]; 12 ± 7.3 nM in assay [3]; 15 nM in [4]; 14 nM in [5]; 18 nM in assay [6]. Also, the Ki was 22 nM in assay [7], 6.7 nM in [8] and 22 ± 12 nM in assay [9].
In the case of `CCCN(CCC)C1CCc2cccc(O)c2C1` (centres unmarked) [Compound 8-OH-DPAT], on 5-HT1A (h), the “nH, Specific binding” value was determined as 1.814.
With `CNC(=O)[C@H]1O[C@@H](n2cnc3c(NCc4cccc(I)c4)ncnc32)[C@H](O)[C@@H]1O` [IB-MECA], the “nH, Specific binding” value at A3 (h) is given as 0.5951.
`CN1[C@@H]2CC[C@H]1C[C@@H](OC(=O)c1cc(Cl)cc(Cl)c1)C2` [MDL 72222]: at 5-HT3 (h), the “nH, Specific binding” value amounted to 1.115.
On to `N=C(N)NCCC[C@@H](N)C(=O)N[C@@H](CCCNC(=N)N)C(=O)N1CCC[C@H]1C(=O)N1C[C@H](O)C[C@H]1C(=O)NCC(=O)N[C@@H](Cc1ccccc1)C(=O)N[C@@H](CO)C(=O)N[C@H](Cc1ccccc1)C(=O)N[C@@H](Cc1ccccc1)C(=O)N[C@@H](CCCNC(=N)N)C(=O)O` [NPC 567], for which the “nH, Specific binding” value on B2 (h) was found to be 0.9653.
For `CCC(C)N(C)C(=O)c1cc2ccccc2c(-c2ccccc2Cl)n1` (centres unmarked) [PK 11195], on BZDp (TSPO) (h), the “nH, Specific binding” value is reported as 1.786.
In the case of `Oc1ccc(-c2nc(-c3ccncc3)c(-c3ccc(F)cc3)[nH]2)cc1` [SB202190], on p38alpha kinase (h), the “nH, Enzymatic activity” value worked out at 1.298.
`CC(C)NCC(O)COc1ccc(CC(N)=O)cc1` (centres unmarked) [atenolol]: the “nH, Specific binding” value at beta1 (h) amounted to 1.187.
As for `C[C@@H]1O[C@@H](O[C@H]2C[C@@H](O)[C@]3(CO)[C@H]4[C@H](O)C[C@]5(C)[C@@H](C6=CC(=O)OC6)CC[C@]5(O)[C@@H]4CC[C@]3(O)C2)[C@H](O)[C@H](O)[C@H]1O` [ouabain], the IC50 on ATPase (Na+/K+) turned out to be 569 nM.
Take `CNCCCC1c2ccccc2C=Cc2ccccc21` [protriptyline]: the “nH, Specific binding” value in assay [10] is given as 1.357.
Regarding `NCCc1c[nH]c2ccc(O)cc12` [serotonin], the results for the “nH, Specific binding” value at 5-HT4e (h) and at 5-HT7 (h) were 0.8128 and 1.62, respectively.
Compound `CN[C@@H]1C[C@H]2O[C@@](C)([C@@H]1OC)n1c3ccccc3c3c4c(c5c6ccccc6n2c5c31)C(=O)NC4` [staurosporine] returned a nH on JNK1 (h) of 0.9654.
For the compound `COC(=O)[C@@H]1[C@H]2C[C@H]3c4[nH]c5ccccc5c4CCN3C[C@@H]2CC[C@@H]1O` [yohimbine], the “nH, Specific binding” value worked out at 0.928 at alpha2A (h) and 1.207 at alpha2C (h).
omega -conotoxin GVIA: the IC50 in the assay with Ca2+ channel (N) was determined as 0.0012 nM.
